In assay [1] the test system is Tau phosphorylation at Threonine 212 (pT212Tau), HEK293T cells. The assay can be described thus: Tau phosphorylation at Threonine 212 (pT212Tau) in Dyrk1a- and MAPT-overexpressing HEK293T cells, sandwich ELISA. As to conditions: Homo sapiens, HEK-293T, overnight (16-18 hours), read-out: Thr212 EC50. Format: cell-based. As for the experimental part: Representative compounds were screened using the cell-based assay procedure for signal of Tau phosphorylation at Threonine 212 (pT212Tau) in a transiently double transfected (Dyrk1a- and MAPT-overexpressing) cell type as described below.
HEK293T cells (transfectable human embryonic kidney cells) were cultured in DMEM medium supplemented with 10% FBS and 1% penicillin/streptomycin.
HEK293T cells were transiently transfected to overexpress Dyrkla and microtubule-associated protein Tau (MAPT) genes. Specifically, Dyrkla and MAPT expression vectors were obtained from OriGene (10 μg of each, catalog numbers SC314641 and RC216166, respectively). A MaxiPrep for each vector was ordered and received from GeneWiz, yielding […] (resuspended at […]) of the Dyrkla expression vector, and 898 μg (resuspended at 1.796 μg/μL) of MAPT.
HEK293T cells were seeded at 1.0×10^7 cells in 10 mL per T-75 flask. […] One T-75 flask was designated as a no-vector negative control for pT212Tau signal.
After 4˜6 hours of incubation in transfection reagents, transiently double transfected HEK293T cells were dissociated by treatment with trypsin EDTA and seeded at 1.0×10^5 cells in 100 μL per well in 96-well plates. No-vector negative controls were seeded in separate 96-well plates to avoid the risk of the negative control cells picking up the overexpression during incubation. At the time of seeding, DMSO-resuspended Samumed compounds were dispensed to eight wells as a serial dilution from 10 μM to 4.6 nM final concentration in medium, or at 0.12 μM to 0.05 nM with particularly potent compounds. Cells were exposed to the representative compounds overnight (16-18 hours) in a 37° C. incubator.
96-Well flat-bottom plates were coated with 100 μL per well anti-HT7 capture antibody (ThermoFisher, MN1000) diluted 1:300 in 1×PBS at 4° C. overnight, with shaking at 500 rpm. After overnight capture antibody incubation, coated plates were washed four times with 200 µL per well of 1×PBS-0.05% Tween-20, and blocked for 1 hour with 200 μL per well of 1×PBS with 2% BSA. After 1 hour of blocking, plates were washed four times with 200 μL per well of 1×PBS-0.05% Tween-20, prior to sample loading.
Wells of compound-treated cells were visually checked for cell death before being washed with 200 μL per well of 1×DPBS supplemented with phosphatase inhibitor diluted to IX. Cells were then lysed with 100 μL 1×RIPA buffer supplemented with phosphatase and protease inhibitors (each diluted to a final 1×). Cells were shaken at 500 rpm, 4° C. for 20 minutes prior to further lysis (via manual scraping) and transfer to 96-well V-bottom collection plates (Corning, 3894). V-bottom plates were centrifuged at 4000 rpm, 4° C., for 15 minutes, and 100 μL of lysate supernatant from each well was directly tested for pT212Tau signal by sandwich ELISA.
Specifically, lysates were directly transferred to the coated and blocked ELISA plates for 2 hours before plates were washed four times with 200 μL per well of 1×PBS-0.05% Tween-20 and probed with 100 μL per well of anti-pT212Tau antibody (ThermoFisher, 44-740G) diluted 1:200 in 1×PBS for 2 hours. Plates were washed four times with 200 μL per well of 1×PBS-0.05% Tween-20 and probed with 100 μL per well of anti-rabbit/HRP conjugate (Cell Signaling Technology, 7074S) diluted 1:600 in 1×PBS for 1 hour. Plates were washed four times with 200 μL per well of 1×PBS-0.05% Tween-20 before 100 μL per well of TMB substrate solution (ThermoFisher, N301) was added. When colour development was observed, 100 μL per well of stop solution (ThermoFisher, N600) was added, and colorimetric detection of pT212Tau signal was read at 450 nm with the Cytation 3 Cell Imaging Multi-Mode Reader (BioTek). The signal was used to plot, draw the curves fitting, and determine the EC50 values in GraphPad Prism for tested representative compounds.

For assay [2], the system named is LL29 cells (primary human fibroblasts derived from IPF patients), α-smooth muscle actin. The assay can be described thus: Inhibition of fibrotic process: αSMA in TGF-β1-treated primary human fibroblasts from IPF patients (LL29 cells). Format: cell-based. The settings on record: Homo sapiens, Fibroblast; for EC50: 96 h, % αSMA-positive LL29 cells, TGF-β1 20 ng/mL, 4 days; for inhibition at 10 µM: read-out: percent inhibition at 10 μM. The essentials: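 IPF-patient lung fibroblasts (LL29) were stimulated with TGF-β1 (20 ng/mL) in 1% FBS medium with compound (11-point 1:2 series, 0.1% DMSO) for 4 days at 37 °C. Fixed cells were immunostained for αSMA and imaged, excluding SYTOX-positive dead cells. The % αSMA-positive cells was normalized to TGF-β1/DMSO control wells.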

Drawing on patent publication US10604514B2, “6-(5-membered heteroaryl)isoquinolin-3-yl carboxamides and preparation and use thereof” (Samumed, LLC, priority 2017, dated 2020), this text covers EC50 and inhibition for 14 compounds.

Broadly, the EC50 is the concentration giving half of the maximal effect. Regarding `Cc1nnc(-c2ccc3cnc(NC(=O)[C@H]4CC[C@H](N(C)C)CC4)cc3c2)s1` [Compound 22, trans-4-(Dimethylamino)-N-(6-(5-methyl-1,3,4-thiadiazol-2-yl)isoquinolin-3-yl)cyclohexane-1-carboxamide], the results for the EC50 in assay [1] and in assay [2] were 11 nM and 602 nM, respectively.

As for `Cc1cn2c(n1)CN(C(=O)Nc1cc3cc(-c4nnc(C)s4)ccc3cn1)CC2` [Compound 58, 2-Methyl-N-(6-(5-methyl-1,3,4-thiadiazol-2-yl)isoquinolin-3-yl)-5,6-dihydroimidazo[1,2-a]pyrazine-7(8H)-carboxamide], the figures for the EC50 in assay [1] and in assay [2] were 93 nM and 788 nM, respectively.

With `CN1CC2CCC(C1)N2C(=O)Nc1cc2cc(-c3cnn(C)c3)ccc2cn1` [Compound 61, 3-Methyl-N-(6-(1-methyl-1H-pyrazol-4-yl)isoquinolin-3-yl)-3,8-diazabicyclo[3.2.1]octane-8-carboxamide], the figures for the EC50 in assay [1] and in assay [2] were 15 nM and 2770 nM, respectively.

The term inhibition denotes how much of the control response was suppressed. On to `C[C@@H]1CN(C(=O)Nc2cc3cc(-c4cnn(C)c4)ccc3cn2)CCN1C` [Compound 67, (R)-3,4-Dimethyl-N-(6-(1-methyl-1H-pyrazol-4-yl)isoquinolin-3-yl) piperazine-1-carboxamide], for which, in assay [1], the EC50 amounted to 6 nM. Besides, in assay [2], the EC50 is more than 10000 nM and the inhibition at 10 µM was 5.2%.

For `COCCN[C@H]1CC[C@H](C(=O)Nc2cc3cc(-c4cnc(C)o4)ccc3cn2)CC1` [Compound 106, trans-4-((2-Methoxyethyl)amino)-N-(6-(2-methyloxazol-5-yl)isoquinolin-3-yl)cyclohexane-1-carboxamide], the EC50 in assay [1] is 137 nM; in assay [2] it was 707 nM.

Take `Cc1nnc(-c2ccc3cnc(NC(=O)N4C5CCC4CN(C)C5)cc3c2)s1` [Compound 108, 3-Methyl-N-(6-(5-methyl-1,3,4-thiadiazol-2-yl)isoquinolin-3-yl)-3,8-diazabicyclo[3.2.1]octane-8-carboxamide]: the EC50 in assay [1] was 22 nM. In addition, in assay [2], the concentration giving a half-maximal response (EC50) is more than 10000 nM and the inhibition at 10 µM was 18.2%.

`Cc1nnc(-c2ccc3cnc(NC(=O)N4[C@@H]5CC[C@H]4C[C@H](NCCC(F)(F)F)C5)cc3c2)s1` [Compound 153, (1R,5S)-N-(6-(5-Methyl-1,3,4-thiadiazol-2-yl)isoquinolin-3-yl)-3-exo-((3,3,3-trifluoropropyl)amino)-8-azabicyclo[3.2.1]octane-8-carboxamide]: in assay [1], the EC50 is 528 nM. Moreover, in assay [2], the EC50 was more than 10000 nM and the inhibition at 10 µM came out at 9%.

With `Cc1ncc(-c2ccc3cnc(NC(=O)[C@H]4CC[C@H](NCCF)CC4)cc3c2)o1` [Compound 155, trans-4-((2-fluoroethyl)amino)-N-(6-(2-methyloxazol-5-yl)isoquinolin-3-yl) cyclohexane-1-carboxamide], the EC50 turned out to be 26 nM in assay [1] and 1060 nM in assay [2].

`Cc1nnc(-c2ccc3cnc(NC(=O)N4[C@@H]5CC[C@H]4C[C@@H](NCCC(F)(F)F)C5)cc3c2)s1` [Compound 195, (1R,5S)-cis-N-(6-(5-methyl-1,3,4-thiadiazol-2-yl)isoquinolin-3-yl)-3-((3,3,3-trifluoropropyl)amino)-8-azabicyclo[3.2.1]octane-8-carboxamide]: in assay [1], the EC50 was 46 nM. For the same compound, in assay [2], the EC50 was more than 10000 nM and the inhibition at 10 µM was found to be 23.4%.

`COCCN[C@H]1CC[C@H](C(=O)Nc2cc3cc(-c4cnn(C)c4)ccc3cn2)CC1` [Compound 196, trans-4-((2-Methoxyethyl)amino)-N-(6-(1-methyl-1H-pyrazol-4-yl)isoquinolin-3-yl)cyclohexane-1-carboxamide]: the EC50 in assay [1] was 19 nM; in assay [2], 184 nM.

As to `Cc1nnc(-c2cc(F)c3cnc(NC(=O)N(C)C4CCN(C)CC4)cc3c2)s1` [Compound 227, 3-(8-Fluoro-6-(5-methyl-1,3,4-thiadiazol-2-yl)isoquinolin-3-yl)-1-methyl-1-(1-methylpiperidin-4-yl)urea], the EC50 in assay [1] is 691 nM.

With `CN1CCC(N(C)C(=O)Nc2cc3cc(-c4cn(C)nn4)cc(F)c3cn2)CC1` [Compound 228, 3-(8-Fluoro-6-(1-methyl-1H-1,2,3-triazol-4-yl)isoquinolin-3-yl)-1-methyl-1-(1-methylpiperidin-4-yl)urea], the results for the EC50 in assay [1] and in assay [2] were more than 10000 nM and 9980 nM, respectively.

For `CN1CCC(N(C)C(=O)Nc2cc3cc(-c4cnn(C)c4)cc(F)c3cn2)CC1` [Compound 230, 3-(8-Fluoro-6-(1-methyl-1H-pyrazol-4-yl)isoquinolin-3-yl)-1-methyl-1-(1-methylpiperidin-4-yl)urea], the EC50 is 56 nM in assay [1] and 6330 nM in assay [2].

Regarding `Cc1ncc(-c2ccc3cnc(NC(=O)N(C)C4CCN(C)CC4)cc3c2)o1` [Compound 231, 1-Methyl-3-(6-(2-methyloxazol-5-yl)isoquinolin-3-yl)-1-(1-methylpiperidin-4-yl)urea], the figures for the concentration giving a half-maximal response (EC50) in assay [1] and in assay [2] were 110 nM and 2950 nM, respectively.
